Experimental findings from ChEMBL document CHEMBL1201862, “PubChem BioAssay data set” (2004) are described below.

Some test systems named below: T47D; M19-MEL; LXFL 529; XF498; DLD-1; DMS-273; DMS-114; HOP-18.
What all share (assay): inhibition of tumour cell growth, NCI panel, 48 h

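Compound exposure: 48 hours, 5 concentrations, 96-well plates. GI50 marks 50% less growth.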 The source made the active and inactive calls. No stated cut-off is given here; in the data, active = GI50 up to about 1.1 µM and inactive = higher. Some results are limits rather than exact numbers.

Take `O=[As](O)(O)c1ccc(Cc2ccc([As](=O)(O)O)cc2)cc1`: the GI50 in the assay with T47D was 0.312 µM (active).
Still for that read-out and setting: next, `Cc1cc(S(=O)(=O)Nc2n[nH]c(-c3ccc(Cl)cn3)n2)c(S)cc1Cl`: 31 µM (inactive).
Take `COc1cc(N(C)C)ccc1C=c1c2ccccc2n2c1cc(-c1ccccc1)[n+]2C`: the GI50 in the assay on T47D was 0.266 µM (active).
Still for that read-out and setting: next, `N=C(N)Nc1ccc(-c2ccc(NC(=N)N)cc2)cc1`: 44.4 µM (inactive).
With `Cc1ccc(/N=N/C2S/C(=C(\C#N)c3nc4ccccc4[nH]3)N(c3ccccc3)C2=O)cc1` (stereo not drawn), the GI50 was > 100 µM (inactive) in the assay with M19-MEL; > 100 µM (inactive) in the assay with LXFL 529; 30 µM (inactive) in the assay with XF498; > 100 µM (inactive) in the assay on DLD-1; > 100 µM (inactive) in the assay with DMS-273; 65.5 µM (inactive) with DMS-114.
With `O/N=C1\C/C(=N\O)c2c(Br)sc(Br)c21`, in the assay with T47D, the GI50 was 31.3 µM (inactive).
For `CC[n+]1c(/C=C/c2cc(C(=O)OC)n3c2sc2ccccc23)sc2ccccc21`, the GI50 in the assay with M19-MEL is 18.9 µM (inactive); with LXFL 529 it was 13.8 µM (inactive); in the assay on XF498 it was 13.3 µM (inactive); with DMS-273 it was 17.6 µM (inactive); with DMS-114 it was 19.2 µM (inactive).
For `CC1(C)CCCCC1/C=C/C(CC(O)(C(F)(F)F)C(F)(F)F)=N\Nc1ccc([N+](=O)[O-])cc1[N+](=O)[O-]` (stereo not drawn), the GI50 in the assay on T47D is 0.365 µM (active).
The same measure, in the same setting: next, `CCOC(=O)c1cc(-c2ccn(C(C)=O)c2)c(-c2cc(C)co2)[nH]1`: > 100 µM (inactive).
In the case of `CSC1=NC(C(N)=O)C(N)N1C` (stereo not drawn), in the assay with T47D, the GI50 was > 100 µM (inactive).
Take `O=C(COc1ccc(Cl)c(Cl)c1)Nc1ccc[n+](Cc2ccc(S(=O)(=O)F)c(Cl)c2)c1`: in the assay with T47D, the GI50 was > 100 µM (inactive).
Same read-out and setting: the figure for `CC1CC(C)C2=NOS3=C2C1=NO3` (stereo not drawn) is > 100 µM (inactive).
`O=C(NNS(=O)(=O)c1ccccc1)c1csc(NC(=S)NC2CCCCC2)n1`: in the assay with T47D, the GI50 was 18.7 µM (inactive).
Same read-out and setting: the figure for `COc1ccc(NC(=O)CC(=O)NNC(Sc2ccccc2)c2cc(/N=N/c3ccc(Br)cc3)ccc2O)cc1` (stereo not drawn) is > 10 µM (inactive).
Take `COc1cc(C2C(Cl)C(=O)N2NC(=O)c2ccc(N)cc2)ccc1O` (stereo not drawn): the GI50 was 55.5 µM (inactive) in the assay on M19-MEL; 16.6 µM (inactive) with LXFL 529; 31.3 µM (inactive) in the assay with XF498; 29.4 µM (inactive) in the assay on DLD-1; 47.5 µM (inactive) in the assay on DMS-273.
With `Cc1c(CN2CCN(C)CC2)c(CN2CCN(C)CC2)c(C)n1-c1ccc(Cl)cc1`, in the assay with T47D, the GI50 was 19.2 µM (inactive).
Same read-out and setting: the figure for `COC1CC(C)([N+](=O)[O-])C(O)C(C)O1` (stereo not drawn) is > 100 µM (inactive).
Same read-out and setting: the figure for `CCCC(CC)c1c(O)c(O)c(C(CC)CCC)c(C(CC)CCC)c1C(CC)CCC` (stereo not drawn) is > 10 µM (inactive); for `O=C1OC(c2ccccc2)N/C1=C\c1ccc2c(c1)OCO2` (stereo not drawn) it is > 100 µM (inactive).
For `COC(=O)[C@]12CSCN1C(=O)C(C(C)=O)=NN2C(=O)[C@](OC)(c1ccccc1)C(F)(F)F`, the GI50 in the assay on M19-MEL, in the assay with LXFL 529, with XF498, with DMS-273 and in the assay on DMS-114 was > 100 µM (inactive) each time.
As for `CN1C(c2ccccc2)CC(O)CC1c1ccccc1` (stereo not drawn), the GI50 in the assay on M19-MEL, with LXFL 529, in the assay with DLD-1, in the assay with DMS-273 and in the assay with DMS-114 was > 100 µM (inactive) throughout.
As for `CC(=O)O[C@H]1CCC2[C@@H]3CCC4NC(=O)C(C#N)C[C@]4(C)C3CC[C@@]21C` (stereo partly drawn), in the assay with T47D, the GI50 is > 10 µM (inactive).
On the same count and under the same terms, the figure for `CCOC(=O)c1cccc(NC(=O)CCl)c1` is 2.48 µM (inactive).
On the same count and under the same terms, next, `O=C(/C=C/c1c[nH]c2ccccc12)c1ccccc1O`: 1.75 µM (inactive).
Regarding `N#Cc1cc([N+](=O)[O-])ccc1NC(=O)/C(=N/N)C(C(=O)c1ccc(Cl)c(Cl)c1)C1OC(=O)c2ccccc21` (stereo not drawn), the GI50 with M19-MEL was 26.9 µM (inactive); with LXFL 529 it was 43 µM (inactive); in the assay with DLD-1, 35 µM (inactive); in the assay with DMS-114 it was 28.4 µM (inactive).
As for `COc1cc(-c2[nH]ccc2Cl)oc1C1=C2N=C3C=C2C(C(C)C)C1CCCCCCCC3` (stereo not drawn), the GI50 in the assay on M19-MEL was 0.603 µM (active); in the assay with LXFL 529, 0.515 µM (active); with XF498, 1.38 µM (inactive); with DLD-1 it was 0.975 µM (active); in the assay with T47D it was 0.272 µM (active); with DMS-273 it was 0.589 µM (active). In addition, the GI50 is 0.332 µM (active) in the assay with HOP-18 and 0.485 µM (active) in the assay with DMS-114.
Turning to `Cc1cc(C)c2c(=N)c3ccccc3n(CCCCCCO)c2n1`, in the assay on T47D, the GI50 was 2.94 µM (inactive).
The same measure, in the same setting: the figure for `CC(C)SC(C)(NC(=O)C1C(C)(C)CCC1(C)C)C(=O)O` (stereo not drawn) is > 100 µM (inactive).
On the same count and under the same terms, the figure for `Cc1ccc(O)c(C2=CC(c3cccc(Cl)c3)SC(=N)N2)c1` (stereo not drawn) is 23.8 µM (inactive).
Same read-out and setting: the figure for `COC(=O)C1(Cc2cccc(Cl)c2)CCCCCCN1C(=O)c1ccccc1` (stereo not drawn) is 14.4 µM (inactive); for `CCN(CC)C(=S)N/N=C/c1ccccn1` it is < 0.01 µM (active).
On to `CC(=O)OC(C)(C)C1CCC(C)(C(O)COc2ccc(CCNC(=O)c3ccccc3)cc2)O1` (stereo not drawn), for which the GI50 is 37.3 µM (inactive) in the assay with M19-MEL; 25.1 µM (inactive) in the assay on LXFL 529; 10.5 µM (inactive) with XF498; 31.5 µM (inactive) in the assay with DLD-1; 33.3 µM (inactive) with DMS-273; > 100 µM (inactive) with HOP-18. Moreover, in the assay with DMS-114, the GI50 is 12.5 µM (inactive).
Take `Cc1cc2[nH]c3c(C#N)c(-c4ccccc4)c(/C=N/c4cccc(C(F)(F)F)c4)c(=O)n3c2cc1C`: the GI50 with T47D was 45 µM (inactive).
Take `CN(C)c1ccc(/C=N/C23CC4CC(CC(C4)C2)C3)cc1`: the GI50 in the assay on M19-MEL, in the assay with DMS-273 and in the assay on DMS-114 was > 100 µM (inactive) each time.
On to `CCC(=O)O[C@H]1CC[C@H]2[C@@H]3CCC4=C/C(=N/NC(=O)c5cccc6c(=O)c7ccccc7[nH]c56)CC[C@]4(C)[C@H]3CC[C@]12C`, for which the GI50 with T47D was > 25 µM (inactive).
With `CCCCCC1=CC(=O)C1(Cl)Cl`, the GI50 with T47D is 8.24 µM (inactive).
Still for that read-out and setting: the figure for `CCc1c2c(cc3c1CC1(C3)Cc3cc4c(c(C(=O)OC)c3C1)CCCC4)CCCC2` (stereo not drawn) is > 100 µM (inactive).
`C=CC1(CC)/C(=N\O)C(CC)(CC)C(=O)N1O` (stereo not drawn): the GI50 in the assay with M19-MEL was > 100 µM (inactive); in the assay on LXFL 529 it was > 100 µM (inactive); with XF498, 48.9 µM (inactive); in the assay with DLD-1, > 100 µM (inactive); in the assay with DMS-273, > 100 µM (inactive); with DMS-114, > 100 µM (inactive).
Turning to `Cc1c(-c2nnc(-c3ccccc3)o2)c(=O)n(-c2ccccc2)n1C`, the GI50 in the assay with M19-MEL, in the assay on LXFL 529, in the assay on XF498, with DLD-1, in the assay on DMS-273 and in the assay on HOP-18 was > 100 µM (inactive) throughout. Moreover, the GI50 in the assay with DMS-114 was > 100 µM (inactive).
Consider `CC(=O)OCC1OC(Sc2ccccn2)C=CC1OC(C)=O` (stereo not drawn), for which the GI50 with M19-MEL, in the assay on LXFL 529, in the assay on XF498, in the assay with DLD-1, in the assay with DMS-273 and with HOP-18 was > 100 µM (inactive) in each case. For the same compound, the GI50 in the assay on DMS-114 was > 100 µM (inactive).
Regarding `COC(=O)/C(C#N)=C(\Nc1ccccc1)N1CCOCC1`, in the assay on T47D, the GI50 is > 100 µM (inactive).
The same measure, in the same setting: the figure for `Cc1cn(CCOCCOC(=O)NC(CCCNC(=N)N)C(=O)O)c(=O)[nH]c1=O` (stereo not drawn) is > 100 µM (inactive).
Still for that read-out and setting: the figure for `Cc1cc2c(cc1C)C(=O)C1(C2)Cc2cc3c(cc2C1=O)CCC3` (stereo not drawn) is > 100 µM (inactive); for `COCN1C(=O)[C@@H]2CCCN2C(=O)c2cc([N+](=O)[O-])ccc21` it is 45.7 µM (inactive).
For `COc1cccc(/C=N/[N+](C)(C)C)c1O`, in the assay on T47D, the GI50 is > 10 µM (inactive).
Take `COc1cc(Br)cc2cc(C3=CSC4=NCCN34)c(=O)oc12`: the GI50 in the assay with T47D is 17.5 µM (inactive).
Turning to `CCCCCCC1CCC2CCCC(C)N12` (stereo not drawn), the GI50 with M19-MEL was 27.7 µM (inactive); with LXFL 529, > 10 µM (inactive); in the assay on XF498, 19.4 µM (inactive); in the assay on DMS-273, 27.4 µM (inactive); in the assay on HOP-18 it was 29.2 µM (inactive); with DMS-114, 37 µM (inactive).
`CCCCC1Cc2ccccc2-c2nc3ccccc3n21` (stereo not drawn): in the assay with T47D, the GI50 was 7.06 µM (inactive).
Same read-out and setting: the figure for `CCOP(=O)(C=C=C1CCC2[C@@H]3CCc4cc(OC)ccc4C3CC[C@]12C)OCC` (stereo partly drawn) is 6.22 µM (inactive).
Still for that read-out and setting: the figure for `O=C1c2ccccc2C(=O)N1n1c(Cc2ccc([N+](=O)[O-])cc2)n[nH]c1=O` is 23.3 µM (inactive).
Regarding `Cc1cc(N)c(C)c2c1[nH]c1ccc(O)cc12`, the GI50 is 61 µM (inactive) in the assay on M19-MEL; 56.4 µM (inactive) with XF498; > 100 µM (inactive) in the assay with DMS-273; > 100 µM (inactive) with HOP-18; > 10 µM (inactive) with DMS-114.
Consider `COc1cc(/C=C2\N=C(c3ccccc3)N(c3ccc(C(=O)c4ccccc4)cc3N3C(=O)/C(=C/c4ccc(O)c(OC)c4)N=C3c3ccccc3)C2=O)ccc1O`, for which the GI50 with T47D was 5.18 µM (inactive).
On the same count and under the same terms, the figure for `CCOP(=O)(CN1CCNCCNCC1)OCC` is > 100 µM (inactive).
The same measure, in the same setting: the figure for `COc1ccc2c(c1)c(CC(=O)O)c(C)n2C(=O)c1ccc(Cl)cc1` is 52.6 µM (inactive).
Consider `CC(=O)O[C@H]1C(=O)[C@@]2(C)C(C(OC(=O)c3ccccc3)[C@]3(O)CC(OC(=O)C(O)C(NC(=O)c4ccc(C)cc4)c4ccccc4)C(C)=C1C3(C)C)[C@]1(OC(C)=O)CO[C@@H]1C[C@@H]2O` (stereo partly drawn), for which the GI50 is < 0.0025 µM (active) in the assay on M19-MEL; 0.00424 µM (active) in the assay on LXFL 529; < 0.0025 µM (active) with XF498; 0.0661 µM (active) with DLD-1; < 0.0025 µM (active) in the assay with DMS-273; < 0.0025 µM (active) in the assay with DMS-114.
As for `O=c1c2cc(Cl)ccc2[nH]c2cc(O)cc(O)c12`, the GI50 in the assay on T47D is > 10 µM (inactive).
For `COc1ccc(C(C)c2cc3c(cc2O)OCO3)cc1` (stereo not drawn), the GI50 in the assay with T47D is 24.9 µM (inactive).
Same read-out and setting: next, `CC(=O)Oc1ccc(/C=C/C(=O)OCCOC(=O)/C=C/c2ccc(OC(C)=O)c(OC(C)=O)c2)cc1OC(C)=O`: 13 µM (inactive).
